Reference: PubChem BioAssay AID256 (DTP/NCI, 2004)
Where “and” joins values, the source holds several entries; their conditions need not be identical. Equal values may be shown once. Inconclusive results and toxic doses are left out. The calls were made as follows: active = survival T/C of 150% or more; inactive = T/C below 125% in these data.

Tested on: CD2F1 mice, L1210 leukemia ip, survival T/C
Experiment: NCI In Vivo Anticancer Drug Screen. Data for tumor model L1210 Leukemia (intraperitoneal) in CD2F1 (CDF1) mice
Conditions: endpoint: mean survival time, higher = longer survival
Method in brief: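 In this screen, transplantable tumors were grown in mice given either the compound or its vehicle. Results were expressed as the treated measurement relative to the control measurement.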

[1] = dose: 25.0 mg/kg/injection, schedule: Q04DX003 (ip), vehicle: saline
[2] = dose: 100.0 mg/kg/injection, schedule: Q01DX001 (ip), vehicle: Klucel (hydroxypropylcellulose) (HPC)
[3] = dose: 200.0 mg/kg/injection, schedule: Q01DX001 (ip), vehicle: Klucel (hydroxypropylcellulose) (HPC)
[4] = dose: 400.0 mg/kg/injection, schedule: Q01DX001 (ip), vehicle: Klucel (hydroxypropylcellulose) (HPC)
[5] = dose: 100.0 mg/kg/injection, schedule: Q01DX009 (ip), vehicle: saline with Tween-80
[6] = dose: 200.0 mg/kg/injection, schedule: Q01DX009 (ip), vehicle: saline with Tween-80
[7] = dose: 400.0 mg/kg/injection, schedule: Q01DX009 (ip), vehicle: saline with Tween-80
[8] = dose: 12.5 mg/kg/injection, schedule: Q04DX003 (ip), vehicle: saline with Tween-80
[9] = dose: 25.0 mg/kg/injection, schedule: Q04DX003 (ip), vehicle: saline with Tween-80
[10] = dose: 100.0 mg/kg/injection, schedule: Q04DX003 (ip), vehicle: saline with Tween-80
[11] = dose: 200.0 mg/kg/injection, schedule: Q04DX003 (ip), vehicle: saline with Tween-80
[12] = dose: 400.0 mg/kg/injection, schedule: Q04DX003 (ip), vehicle: saline with Tween-80
[13] = dose: 100.0 mg/kg/injection, schedule: Q04DX003 (ip), vehicle: saline
[14] = dose: 50.0 mg/kg/injection, schedule: Q04DX002 (ip), vehicle: saline
[15] = dose: 100.0 mg/kg/injection, schedule: Q04DX002 (ip), vehicle: saline
[16] = dose: 75.0 mg/kg/injection, schedule: Q01DX001 (ip), vehicle: saline
[17] = dose: 150.0 mg/kg/injection, schedule: Q01DX001 (ip), vehicle: saline

Measured: T/C

CC(O)c1ccc[n+](CCc2cn(C)c3ccccc23)c1 (stereo not drawn)
inactive: dose: 6.25 mg/kg/injection, schedule: Q01DX009 (ip), vehicle: saline 97 % of control | dose: 6.25 mg/kg/injection, schedule: Q04DX003 (ip), vehicle: saline 94 % of control | dose: 12.5 mg/kg/injection, schedule: Q01DX009 (ip), vehicle: saline 96 % of control | dose: 12.5 mg/kg/injection, schedule: Q04DX003 (ip), vehicle: saline 92 % of control | dose: 25.0 mg/kg/injection, schedule: Q01DX009 (ip), vehicle: saline 105 % of control | [1] 92 % of control

Cc1nnc(C(N)=O)c(=O)[nH]1
inactive: [2] 102 % of control | [3] 98 % of control | [4] 100 % of control

COC(c1ccccc1)C(Br)c1ccccc1 (stereo not drawn)
inactive: [5] 97 % of control | dose: 100.0 mg/kg/injection, schedule: Q04DX003 (ip), vehicle: saline sonified 103 % of control | [6] 97 % of control | dose: 200.0 mg/kg/injection, schedule: Q04DX003 (ip), vehicle: saline sonified 100 % of control | [7] 109 % of control | dose: 400.0 mg/kg/injection, schedule: Q04DX003 (ip), vehicle: saline sonified 105 % of control

CCOC(=O)C(C)C(O)(c1ccccc1)c1ccccc1 (stereo not drawn)
inactive: dose: 100.0 mg/kg/injection, schedule: Q04DX003 (ip), vehicle: Klucel (hydroxypropylcellulose) (HPC) 95 % of control | dose: 200.0 mg/kg/injection, schedule: Q04DX003 (ip), vehicle: Klucel (hydroxypropylcellulose) (HPC) 101 % of control | dose: 400.0 mg/kg/injection, schedule: Q04DX003 (ip), vehicle: Klucel (hydroxypropylcellulose) (HPC) 95 % of control

Cc1ccc(N)cc1 (tested in a mixture with another compound)
inactive: [8] 97 % of control | [9] 101 % of control and 103 % of control | dose: 50.0 mg/kg/injection, schedule: Q04DX003 (ip), vehicle: saline with Tween-80 107 % of control | [10] 110 % of control and 103 % of control and 107 % of control | [11] 105 % of control and 117 % of control | [12] 102 % of control

CCCCCCCCCC1=NC(C)(C)CN1c1ccccc1
inactive: dose: 5.0 mg/kg/injection, schedule: Q01DX009 (ip), vehicle: saline with Tween-80 98 % of control | dose: 10.0 mg/kg/injection, schedule: Q01DX009 (ip), vehicle: saline with Tween-80 102 % of control | dose: 20.0 mg/kg/injection, schedule: Q01DX009 (ip), vehicle: saline with Tween-80 106 % of control

COCCNP(=O)(OC(C)C)OC(C)C
inactive: [13] 100 % of control | dose: 200.0 mg/kg/injection, schedule: Q04DX003 (ip), vehicle: saline 97 % of control | dose: 400.0 mg/kg/injection, schedule: Q04DX003 (ip), vehicle: saline 101 % of control

O=C(O)C1Cc2c([nH]c3ccccc23)C2CC(C3CC4c5[nH]c6ccccc6c5CC(C(=O)O)N4C3=O)C(=O)N12 (stereo not drawn)
inactive: dose: 100.0 mg/kg/injection, schedule: Q04DX002 (ip), vehicle: saline with Tween-80 97 % of control | dose: 200.0 mg/kg/injection, schedule: Q04DX002 (ip), vehicle: saline with Tween-80 93 % of control | dose: 400.0 mg/kg/injection, schedule: Q04DX002 (ip), vehicle: saline with Tween-80 89 % of control

Cc1cnc(N)nc1-c1ccccc1
inactive: dose: 100.0 mg/kg/injection, schedule: Q01DX001 (ip), vehicle: saline with Tween-80 102 % of control | dose: 200.0 mg/kg/injection, schedule: Q01DX001 (ip), vehicle: saline with Tween-80 94 % of control | dose: 400.0 mg/kg/injection, schedule: Q01DX001 (ip), vehicle: saline with Tween-80 94 % of control

O=[N+]([O-])c1ccccc1-c1nn(-c2ccccc2)c2ccccc12
inactive: dose: 12.5 mg/kg/injection, schedule: Q04DX002 (ip), vehicle: saline with Tween-80 102 % of control | dose: 25.0 mg/kg/injection, schedule: Q04DX002 (ip), vehicle: saline with Tween-80 105 % of control | dose: 50.0 mg/kg/injection, schedule: Q04DX002 (ip), vehicle: saline with Tween-80 90 % of control

O=C(CCl)OCc1ccc([N+](=O)[O-])o1
inactive: [10] 98 % of control | [11] 101 % of control

[NH-]NC(=S)[S-].[NH-]NC(=S)[S-].[Pd]
inactive: [10] 91 % of control

Cc1ccc([N+](=O)[O-])c(N)n1
inactive: [5] 96 % of control | [10] 98 % of control | [6] 86 % of control | [11] 98 % of control | [12] 100 % of control

CC(CSc1ccccc1)NCCO (stereo not drawn)
inactive: [1] 95 % of control | dose: 50.0 mg/kg/injection, schedule: Q04DX003 (ip), vehicle: saline 94 % of control | [13] 100 % of control

COC(=O)C1(C)CCCC2(C)C1CCC13OC1C(C(C)C)=CCC23 (stereo not drawn)
inactive: [5] 104 % of control | [6] 97 % of control | [7] 101 % of control

CC1CCN=C(CCC2CCCCC2=O)O1 (stereo not drawn)
inactive: [10] 96 % of control | [11] 101 % of control | [12] 96 % of control

NC(C1SCCS1)C(O)C(O)C(O)CO (stereo not drawn)
inactive: [10] 101 % of control | [11] 104 % of control | [12] 98 % of control

CCCCCOC(=N)CC(=O)C(C)(C)C
inactive: dose: 100.0 mg/kg/injection, schedule: Q01DX001 (ip), vehicle: saline 94 % of control | dose: 200.0 mg/kg/injection, schedule: Q01DX001 (ip), vehicle: saline 94 % of control | dose: 400.0 mg/kg/injection, schedule: Q01DX001 (ip), vehicle: saline 97 % of control

CNNC(=O)OC
inactive: dose: 25.0 mg/kg/injection, schedule: Q04DX002 (ip), vehicle: saline 95 % of control | [14] 98 % of control | [15] 121 % of control and 109 % of control

COC(=O)/C(C#N)=C(\C)CC(C)C
inactive: [16] 100 % of control | [17] 94 % of control

CC1CCOC1=O (stereo not drawn)
inactive: [14] 98 % of control | [15] 98 % of control | dose: 200.0 mg/kg/injection, schedule: Q04DX002 (ip), vehicle: saline 102 % of control

C(=C/C1CCCCC1)/C=C/C1CCCCC1
inactive: dose: 50.0 mg/kg/injection, schedule: Q01DX009 (ip), vehicle: saline with Tween-80 103 % of control | [5] 92 % of control | [6] 107 % of control

CC1CCC2CC(=O)NC(=O)CC12 (stereo not drawn)
inactive: dose: 6.25 mg/kg/injection, schedule: Q01DX009 (ip), vehicle: saline with Tween-80 98 % of control | dose: 6.25 mg/kg/injection, schedule: Q04DX003 (ip), vehicle: saline with Tween-80 97 % of control | dose: 12.5 mg/kg/injection, schedule: Q01DX009 (ip), vehicle: saline with Tween-80 95 % of control | [8] 97 % of control | dose: 25.0 mg/kg/injection, schedule: Q01DX009 (ip), vehicle: saline with Tween-80 96 % of control | [9] 92 % of control

O=C(O)c1cccc(Cl)n1
inactive: [5] 97 % of control | [6] 97 % of control | [7] 88 % of control

C1=CCC2C3C=CC(CC3)C2C1 (stereo not drawn)
inactive: [16] 86 % of control | [17] 95 % of control | dose: 300.0 mg/kg/injection, schedule: Q01DX001 (ip), vehicle: saline 97 % of control

Cc1cc(=O)c2ccccc2n1C
inactive: dose: 5.0 mg/kg/injection, schedule: Q04DX002 (ip), vehicle: saline 98 % of control | dose: 10.0 mg/kg/injection, schedule: Q04DX002 (ip), vehicle: saline 98 % of control | dose: 20.0 mg/kg/injection, schedule: Q04DX002 (ip), vehicle: saline 98 % of control

C[S+]1C=C(c2ccccc2)C=C(c2ccccc2)C1 (stereo not drawn)
inactive: dose: 7.5 mg/kg/injection, schedule: Q01DX001 (ip), vehicle: saline with Tween-80 114 % of control

CCOC(=O)C(C)(C(=O)OCC)c1cc2ccccc2c2ccccc12
inactive: [2] 104 % of control | [3] 104 % of control | [4] 104 % of control

CCOC(=O)C(C(C)=O)C(C(C)=O)C(=O)OCC (stereo not drawn)
inactive: dose: 75.0 mg/kg/injection, schedule: Q01DX009 (ip), vehicle: saline with Tween-80 97 % of control | [10] 98 % of control | dose: 150.0 mg/kg/injection, schedule: Q01DX009 (ip), vehicle: saline with Tween-80 97 % of control | [11] 95 % of control | dose: 300.0 mg/kg/injection, schedule: Q01DX009 (ip), vehicle: saline with Tween-80 97 % of control | [12] 106 % of control
